Results taken from PubChem BioAssay AID1259321 (Sanford-Burnham Center for Chemical Genomics, 2017).
The source made the active and inactive calls.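 How the source made its calls: active means half-maximal concentration for changing protein binding to DNA, from the fitted dose curve, below 10 micromolar; inactive means the rest.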

Target: Nuclear receptor subfamily 1 group D member 1 (Homo sapiens) (UniProt P20393)
Assay: modulators of Rev-erb alpha DNA binding, dose response, biochemical, FITC-DNA, fluorescence polarization (AID 1259321)

Nuclear receptor subfamily 1 group D member 1 (Homo sapiens), sequence (P20393 whole entry, looked up): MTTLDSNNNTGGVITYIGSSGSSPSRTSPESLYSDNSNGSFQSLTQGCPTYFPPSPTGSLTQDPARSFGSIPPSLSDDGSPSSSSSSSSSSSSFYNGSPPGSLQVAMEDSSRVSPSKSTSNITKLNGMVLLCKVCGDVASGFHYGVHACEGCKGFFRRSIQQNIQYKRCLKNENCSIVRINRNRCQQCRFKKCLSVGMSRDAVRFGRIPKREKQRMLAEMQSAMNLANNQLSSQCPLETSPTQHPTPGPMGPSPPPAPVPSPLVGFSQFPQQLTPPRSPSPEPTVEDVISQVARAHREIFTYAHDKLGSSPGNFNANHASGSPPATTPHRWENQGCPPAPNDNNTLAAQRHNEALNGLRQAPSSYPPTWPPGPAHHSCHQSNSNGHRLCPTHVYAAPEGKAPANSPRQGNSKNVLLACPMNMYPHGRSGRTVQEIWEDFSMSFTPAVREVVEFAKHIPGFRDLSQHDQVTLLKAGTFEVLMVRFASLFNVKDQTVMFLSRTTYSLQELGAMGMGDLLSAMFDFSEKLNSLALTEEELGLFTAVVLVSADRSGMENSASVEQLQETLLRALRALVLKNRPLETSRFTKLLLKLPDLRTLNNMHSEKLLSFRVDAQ

SMILES	IC50
CCc1nc(SCC(=O)NC2CCCC2)c2oc3ccccc3c2n1	> 40 µM (inactive)
Oc1c(C=Nc2cccc3cccnc23)sc2ccccc12	8.64 µM
Cc1ccc(S(=O)(=O)c2c[nH]c3ccc(Cl)cc3c2=O)cc1	> 40 µM (inactive)
CCN1C(=O)c2cccc3c(N)ccc(c23)C1=O	> 40 µM (inactive)
Cc1cccc(N2C(=O)c3cccc4c(N)ccc(c34)C2=O)c1	6.19 µM
CC(C)c1nc2sc3c(SCC(N)=O)ncnc3c2c2c1CCC2	3.43 µM
CCOC(=O)Cn1c(=NC(=O)c2cccs2)sc2cc(C(=O)OC)ccc21	inactive
Cc1ccc(-c2nc3c(c(=O)c4ccccc4n3C)c(=O)n2-c2ccc(F)cc2)cc1	> 40 µM (inactive)
COc1ccc(C(=O)COC(=O)c2cc(=O)[nH]c3ccccc23)c(OC)c1	inactive
CC1=Nc2ccccc2/C1=C/c1sc(=S)n(-c2cccc(C(=O)O)c2)c1O	> 40 µM (inactive)
Cc1cccc(NC(=O)CSc2ncnc3c2oc2ccccc23)c1	0.615 µM
CCN(c1cccc(C)c1)S(=O)(=O)c1cc2c3c(c1)CCC(=O)N3CCC2	inactive
Nc1ccc2nc3c(=O)n(C4CCCCC4)c(=O)[nH]c3nc2c1	6.28 µM
COc1ccc(C(C)=O)cc1CSc1nc2ccccc2c(=O)n1-c1cccc(C)c1	2.17 µM
Cc1cc(C)n2nc(-c3ccc(Cl)cc3)cc2n1	1.64 µM
CC1=NCCN1S(=O)(=O)c1c(C(C)C)cc(C(C)C)cc1C(C)C	> 40 µM (inactive)
Cc1cc(C)c(NC(=O)COc2ccccc2C(=O)Nc2ccc3c(c2)oc2ccccc23)c(C)c1	> 40 µM (inactive)
Cc1ccc2[nH]cc(S(=O)(=O)c3ccc(C)c(C)c3)c(=O)c2c1	> 40 µM (inactive)
N#Cc1c(N)nc(SCC(=O)NCCc2ccccc2)c(C#N)c1-c1cccs1	1.31 µM
CC(=O)c1ccccc1NC(=O)c1cc(S(=O)(=O)N2CCOCC2)ccc1N1CCCC1	4.33 µM
COc1ccc(-c2nnc(NC(=O)C(C)C)s2)c(OC)c1	inactive
O=[N+]([O-])c1ccc(NCc2ccccc2)c2nonc12	1.2 µM
Cc1cc(C)cc(NC(=S)/C(=C(\[O-])c2ccc(Cl)cc2Cl)[n+]2ccc(C(C)(C)C)cc2)c1	> 40 µM (inactive)
Cn1c(=O)c(Nc2ccc(O)cc2)c2c3c(cccc31)C(=O)c1ccccc1-2	6.77 µM
O=C(COc1ncnc2ccc(Br)cc12)NCc1ccc2c(c1)OCO2	1.94 µM
COc1ccc(NC(=O)c2ccc(C(=O)c3cc(OC)ccc3OC)cc2)cc1	1.67 µM

SMILES	IC50
Clc1ccc(-c2ccnc(Oc3cc(Cl)ccc3Cl)n2)cc1	> 40 µM (inactive)
COc1ccc2c(C)cc(SCC(=O)Nc3ncc(Cl)cc3Cl)nc2c1	7.03 µM
CC1=NN(c2ccccc2)C(=O)/C1=C\C=C1/N(C)c2ccccc2C1(C)C	> 40 µM (inactive)
C[n+]1ccc(/C=C/c2c[nH]c3ccc(F)cc23)cc1	> 40 µM (inactive)
CNC(=O)COc1ccccc1C(=O)Nc1ccc2c(c1)oc1ccccc12	> 40 µM (inactive)
O=c1oc2ccccc2c(NC(c2ccccc2)c2ccccc2)c1[N+](=O)[O-]	> 40 µM (inactive)
CC1(Cc2ccccc2OC(F)(F)F)C(=O)Nc2ccc(OC(F)(F)F)cc21 (centres undefined)	4.19 µM
NS(=O)(=O)c1ccc(CCn2c(=S)[nH]c3ccc(F)cc3c2=O)cc1	> 40 µM (inactive)
Cc1ccc2nc(SCC(=O)Nc3ccc4sc(C)nc4c3)c(C#N)cc2c1	> 40 µM (inactive)
Nc1ccc(-c2c3ccc(=O)cc-3oc3cc(O)ccc23)cc1C(=O)O	5.38 µM
COc1ccc(-c2cc(C(F)(F)F)c(C#N)c(SCC(=O)Nc3nc(C)co3)n2)cc1	3.59 µM
CCOC(=O)c1nn(-c2ccc(F)cc2)c(=O)cc1OCC(=O)Nc1cccc(C)c1	9.68 µM
Cc1ccc(Cl)cc1N1CCN(S(=O)(=O)c2ccc(-c3ccc(=O)[nH]n3)o2)CC1	inactive
N#CC(C#N)=C1C=C2C=C(N3CCOCC3)CCC2CC1 (centres undefined)	4.31 µM
COc1cccc(-c2nc(CS(=O)(=O)CC(=O)NCCCc3ccccc3)c(C)o2)c1	7.77 µM
CSc1ccccc1-c1nnc(-c2ccc(Cl)c(Cl)c2)o1	8.81 µM
Brc1nc(-c2ccccc2)nc(-c2ccccc2)c1Br	> 40 µM (inactive)
Cc1cccc(Nc2nn3c(=O)c4ccccc4nc3s2)c1	4.11 µM
Brc1ccc2ncc(Br)cc2c1	4.22 µM
C=CCn1c(=NC(=O)c2cccs2)sc2cc(NC(C)=O)ccc21	inactive
Cc1ccc2nsnc2c1NC(=O)c1sc2ccccc2c1Cl	1.49 µM
COc1ccc(Cl)cc1-c1cc(C(=O)Nc2ccc(F)cc2)[nH]n1	3.13 µM
CCc1ccc(NC(=O)CSc2nc3ncc(Br)cc3[nH]2)cc1	1.53 µM
O=c1cc(-c2ccccc2Cl)oc2c(NS(=O)(=O)c3cccs3)ccc(O)c12	inactive
C#CCn1c(=NC(=O)c2ccc(Br)s2)sc2cccc(OC)c21	2.4 µM
COc1ccc(-n2nc3c(N4CCC(C(=O)NCc5ccccc5)CC4)nnc(C)c3c2C)cc1	> 40 µM (inactive)

SMILES	IC50
CCN(CC)c1ccc(-c2c(C#N)c(N)nc(OC)c2C#N)cc1	> 40 µM (inactive)
CN1C(=O)CSC1=NCC12CC3CC(CC(C3)C1)C2	5.32 µM
O=C(CSc1nnc(-c2ccncc2)n1-c1ccc(Cl)cc1)c1ccc(Cl)c(Cl)c1	0.278 µM
C=CCNc1nc(NCc2ccc(NC(C)=O)cc2)c2sc(-c3ccccc3)cc2n1	5.43 µM
COc1ccc(C(=O)Nc2ccc(C(F)(F)F)n(C)c2=O)cc1	> 40 µM (inactive)
COc1cc(/C=C(\C#N)c2nc3ccccc3[nH]2)cc(OC)c1O	inactive
Cc1nc2ccc3nc(NC(=O)c4ccc5c(c4)OCCO5)sc3c2s1	9.57 µM
Cc1cc(-c2nnc3sc(-c4ccc(Cl)cc4Cl)nn23)n[nH]1	> 40 µM (inactive)
CCOc1cc2[nH]c(=S)n(CCC(=O)N3CCc4ccccc4C3)c(=O)c2cc1OCC	inactive
CC(=O)c1cc2c(cc1N/C(=N/S(=O)(=O)c1ccccc1)c1ccc(Cl)cc1)OCO2	inactive
N#Cc1c(N)nc(Sc2ccc(Cl)cc2)c(C#N)c1-c1ccccc1Cl	6.32 µM
CCCCn1c(SC(C)C(=O)NCC2CCCO2)nc2cc(C(=O)OC)ccc2c1=O (centres undefined)	> 40 µM (inactive)
O=C(Nc1nc(-c2cccs2)c(-c2cccs2)s1)C1CCCC1	2.86 µM
COc1ccc2c(c1)oc(=O)c1c3ccccc3[nH]c21	> 40 µM (inactive)
CCn1cc(C(=O)NCCc2ccccc2C)c(=O)c2ccc(C)nc21	1.16 µM
Cc1cccc2cc(C#N)c(SCC(=O)NCc3cccs3)nc12	9.79 µM
Cc1c(-c2ccc(F)cc2)nc(N)c(C#N)c1-c1cccs1	1.77 µM
Cc1cc(OC(C)C(=O)NCc2cccnc2)c2c(C)c(Cc3ccccc3)c(=O)oc2c1 (centres undefined)	inactive
O=C(Nc1ccc(O)c(-c2nc3ccccc3s2)c1)C1=COCCO1	inactive
COc1ccc(-c2nc(N)ncc2Oc2ccccc2Br)c(O)c1	inactive
COC(=O)c1ccc(Cn2ccc3ccc(-c4ccc5ccn(C(=O)c6ccc(C)cc6)c5c4)cc32)cc1	1.56 µM
O=C(Nc1nc(=O)c2ccccc2s1)c1ccc(F)cc1	1.57 µM
CCOC(=O)c1cc(C(=O)OCC)c2cc(Br)ccc2n1	inactive
Cc1cc(C)c(NC(=O)CSc2nc(COc3ccccc3)nc3ccccc23)c(C)c1	3.42 µM
Cc1cc(NC(=O)c2cccs2)cc(-c2nc3ncccc3o2)c1O	inactive
COc1ccc2cc(OCC(=O)NNC(=O)Nc3ccc(F)cc3)ccc2c1	> 40 µM (inactive)

SMILES	IC50
CCCCOc1ccc(N(CC(=O)NC2CCCCC2)C(=O)c2snc(C(N)=O)c2N)cc1	> 40 µM (inactive)
CCN1C(=O)CSC1=NC12CC3CC(CC(C3)C1)C2	> 40 µM (inactive)
Cc1ccc(C2(C(F)(F)F)NC(=O)N3C(=C2C#N)Nc2ccccc23)cc1 (centres undefined)	2.68 µM
COc1ccccc1NC(=O)CSc1nc(N)c(C#N)cc1C#N	inactive
COc1ccc(C(=O)NCCNc2nc3cc(C)cc(C)c3cc2C#N)nc1	inactive
COC(=O)c1ccc(Cn2ccc3ccc(-c4ccc5ccn(C(=O)c6ccccc6C)c5c4)cc32)cc1	9.87 µM
CC1=NN(c2ccccc2)C(=O)/C1=C\C=C1\N(C)c2ccccc2C1(C)C	inactive
CCc1nc2ccccc2c(C(=O)OCc2nc3ccccc3c(=O)[nH]2)c1C	> 40 µM (inactive)
O=C(Cc1sc(-c2ccccc2)nc1-c1ccccc1)Nc1ccc(Cl)cc1	3.2 µM
O=c1c2ccccc2[nH]c(=S)n1Cc1ccc2c(c1)OCO2	2.5 µM
CN1C(=O)/C(=C\c2ccc(N3CCCCC3)o2)C(=O)NC1=S	3.49 µM
C=CCNC(=O)c1ccc(Cn2c(=S)[nH]c3cc4c(cc3c2=O)OCO4)cc1	inactive
O=C(O)c1ccccc1C(c1ccccc1)c1ccccc1O (centres undefined)	inactive
COC(=O)c1ccc(C(=O)OC)c(NC(=O)N2c3ccccc3Sc3ccccc32)c1	> 40 µM (inactive)
COC(=O)c1ccccc1NC(=O)C1=CC(c2cccs2)=NS(=O)(=O)N1C	1.14 µM
Cc1ccc(-c2nc3ccccc3s2)cc1NC(=O)c1cc(-n2cnnc2)ccc1Cl	inactive
C=CCn1c(SCC(=O)Nc2cc(C)on2)nc2sc(C)c(C)c2c1=O	5.14 µM
COc1ccccc1-c1nc(SCC(=O)N(C)c2ccccc2)c2c(=O)n(C)c(=O)n(C)c2n1	3.13 µM
COc1nc(-c2ccc(Cl)cc2)ccc1-c1noc(-c2cccs2)n1	inactive
C[n+]1cc(C(=O)N2CCCCC2)ccc1/C=C/c1c[nH]c2ccccc12	9.3 µM
COc1ccc(Oc2c(Cl)cnn(CC(=O)C(c3ccccc3)c3ccccc3)c2=O)cc1	0.779 µM
COc1cc(OC)cc(-c2c(C#Cc3ccsc3)c3cc(-c4ccc(SC)cc4)ccc3n2C)c1	7.92 µM
Cc1ccc(-c2nc(NC(=O)CSc3cc(C)c4ccccc4n3)ns2)cc1	1.91 µM
COc1ccccc1NC(=O)c1sc2ncn(Cc3cccc4ccccc34)c(=O)c2c1C	2.38 µM
Cc1cc(C)c2nc(SCC(=O)N3CC(=O)Nc4ccccc43)c(C#N)cc2c1	7.22 µM
COc1ccc(Cn2ccc3ccc(-c4ccc5ccn(C(=O)c6ccccc6OC)c5c4)cc32)cc1	> 40 µM (inactive)
